From ChEMBL document CHEMBL4304775, “Identification and characterization of a novel chemotype for human TLR8 inhibitors” (Eur J Med Chem, 2019)
The source made the active and inactive calls. No cut-off for these calls is given here.

How the values were obtained:
Type in all cases: cell-based
[1] = target: T1, Toll-like receptor 8 (Homo sapiens) (UniProt Q9NR97); assay: Activation of human TLR8 expressed in HEK-Blue cells assessed as increase in NF-kappaB activation at 5 to 25 uM incubated for 24 hrs by quanti-blue SEAP assay
T1 sequence (whole entry): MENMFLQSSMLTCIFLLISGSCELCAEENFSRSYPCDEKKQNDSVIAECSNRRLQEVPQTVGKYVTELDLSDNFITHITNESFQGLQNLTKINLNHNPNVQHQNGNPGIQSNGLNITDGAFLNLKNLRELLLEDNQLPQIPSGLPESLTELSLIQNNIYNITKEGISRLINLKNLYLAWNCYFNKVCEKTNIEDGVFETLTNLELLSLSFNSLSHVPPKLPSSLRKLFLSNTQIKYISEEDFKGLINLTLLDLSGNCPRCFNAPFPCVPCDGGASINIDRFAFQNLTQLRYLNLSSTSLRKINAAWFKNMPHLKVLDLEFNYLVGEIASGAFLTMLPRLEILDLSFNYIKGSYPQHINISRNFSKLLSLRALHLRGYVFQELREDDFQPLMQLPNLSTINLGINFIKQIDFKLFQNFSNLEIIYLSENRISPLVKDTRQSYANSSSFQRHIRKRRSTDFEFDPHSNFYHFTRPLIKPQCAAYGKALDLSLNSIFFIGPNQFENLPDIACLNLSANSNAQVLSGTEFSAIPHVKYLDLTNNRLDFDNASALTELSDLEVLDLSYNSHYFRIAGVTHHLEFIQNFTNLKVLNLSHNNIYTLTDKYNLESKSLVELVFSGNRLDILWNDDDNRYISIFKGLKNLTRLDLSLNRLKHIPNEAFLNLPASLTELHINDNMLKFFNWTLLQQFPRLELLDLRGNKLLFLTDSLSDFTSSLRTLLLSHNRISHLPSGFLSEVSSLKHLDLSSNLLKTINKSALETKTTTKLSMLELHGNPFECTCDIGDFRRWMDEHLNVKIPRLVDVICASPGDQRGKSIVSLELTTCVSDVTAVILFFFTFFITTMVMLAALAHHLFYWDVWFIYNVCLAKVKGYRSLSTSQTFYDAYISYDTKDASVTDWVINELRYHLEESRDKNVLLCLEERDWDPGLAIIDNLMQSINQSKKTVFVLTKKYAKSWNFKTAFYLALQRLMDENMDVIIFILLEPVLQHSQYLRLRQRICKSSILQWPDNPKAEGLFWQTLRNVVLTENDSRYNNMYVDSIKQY

[2] = Cytotoxicity against human HEK-Blue cells transfected with hTLR8 at 25 to 50 uM after 24 hrs by MTT assay
[3] = target: Toll-like receptor 2 (Homo sapiens) (UniProt O60603); assay: Antagonist activity at TLR2 in human THP1 cells assessed as inhibition of Pam2CSK4/Pam3CSK4-induced IL-8 secretion preincubated for 1 hr followed by Pam2CSK4/Pam3CSK4 stimulation and measured after 24 hrs by ELISA; settings: concentration not given here
[4] = target: T1, Toll-like receptor 8 (Homo sapiens); assay: Antagonist activity at human TLR8 expressed in HEK-Blue cells assessed as reduction in CL075-induced NF-kappaB activation at 25 uM incubated for 1 hr followed by CL075-stimulation and measured after 24 hrs by quanti-blue SEAP assay relative to control

Sequence of Toll-like receptor 2 (Homo sapiens) (O60603 whole entry): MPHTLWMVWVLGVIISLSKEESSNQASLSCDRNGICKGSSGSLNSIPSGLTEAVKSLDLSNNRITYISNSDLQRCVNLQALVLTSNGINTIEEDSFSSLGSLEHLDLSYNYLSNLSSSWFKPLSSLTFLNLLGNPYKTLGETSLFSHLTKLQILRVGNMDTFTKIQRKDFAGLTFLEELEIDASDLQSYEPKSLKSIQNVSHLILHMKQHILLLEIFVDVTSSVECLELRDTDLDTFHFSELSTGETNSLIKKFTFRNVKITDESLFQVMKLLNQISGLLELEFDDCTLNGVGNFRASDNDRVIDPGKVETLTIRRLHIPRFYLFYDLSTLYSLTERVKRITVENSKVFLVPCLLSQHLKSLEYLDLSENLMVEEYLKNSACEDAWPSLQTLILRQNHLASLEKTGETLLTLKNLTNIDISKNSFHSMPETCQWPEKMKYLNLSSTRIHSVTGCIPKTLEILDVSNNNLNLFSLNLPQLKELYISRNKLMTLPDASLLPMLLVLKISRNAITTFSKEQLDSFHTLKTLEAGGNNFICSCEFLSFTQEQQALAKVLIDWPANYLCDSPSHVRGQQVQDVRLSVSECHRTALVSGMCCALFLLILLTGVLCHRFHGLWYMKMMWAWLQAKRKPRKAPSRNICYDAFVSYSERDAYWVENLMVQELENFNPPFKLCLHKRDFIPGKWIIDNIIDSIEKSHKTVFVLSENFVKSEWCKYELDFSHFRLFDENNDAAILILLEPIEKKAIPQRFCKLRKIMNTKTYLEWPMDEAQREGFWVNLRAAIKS

Activity [1]	inhibition [3] [%]	inhibition [4] [%]	SMILES	Activity [2]
inactive			CCCCCCn1c(=O)[nH]c2ccccc21	Non-Toxic
inactive			C=CCNc1nc(-c2ccco2)cc(C(F)(F)F)n1	Non-Toxic
inactive			Oc1nc2ccccc2n1Cc1ccccc1	Non-Toxic
inactive			C=CCNc1nc(C)nc(N2NC(C)=CC2C)n1 (stereo not given)	Non-Toxic
inactive			CC(C)OC(=O)CSc1nc2ccc[nH]c-2n1	Non-Toxic
inactive			CCCSc1nc2ccccc2[nH]1	Non-Toxic
inactive			CCCCC(=O)c1c(C)[nH]c2ccccc12	Non-Toxic
inactive	40	< 50	Cc1[nH]c2ccccc2c1C(=O)C(=O)NCc1ccncc1	Non-Toxic
inactive			COc1ccc(NC(=O)c2[nH]nc3ccccc23)cn1	Non-Toxic
inactive			CCn1cc(-c2cc(C(F)(F)F)nc(NCc3ccco3)n2)cn1	Non-Toxic
inactive		< 50	CCOC(=O)c1ccc(NC(=O)C(CC)Sc2nc3ccccc3[nH]2)cc1 (stereo not given)	Non-Toxic
